IC50 data for 32 molecules are collected here from patent US20140171404A1, “Autotaxin inhibitors” (NOVARTIS AG, priority 2012, published 2014).

By IC50 is commonly meant the midpoint of a concentration-inhibition curve.

The first experiment deals with T1, Recombinant human ATX (Homo sapiens, UniProt Q13822).
T1 construct: made in house; host or cells: human embryonic kidney (HEK) cells
In words: Assessing ATX inhibition: released choline, Amplex Red fluorescence. In kind it is biochemical.
Settings: not given
On the procedure:
LPC (oleoyl (18:1)) was purchased from Avanti Polar Lipids (Alabaster; AL) and solubilized in methanol to 20 mM. Amplex Red was obtained from Invitrogen Life Technologies (Paisley, UK) and dissolved in DMSO to 10 mM. Choline oxidase and horseradish peroxidase (HRP) were obtained from Sigma Aldrich (Dorset, UK) and dissolved in HBSS to 20 U/ml and 200 U/ml respectively. All reagents were stored at −20° C. in single use aliquots. All experimental measurements were performed in assay buffer made up immediately prior to use (HBSS, 0.01% BSA essentially fatty acid free).
Recombinant human ATX was prepared at Novartis (Basel, CH) in a human embryonic kidney (HEK) cell preparation, and stored in single use aliquots of […] (26 μM) stocks stored at −80° C.
All experimental measurements were performed in black 384 well polystyrene (low volume, round bottom, Corning (3676)) plates. PerkinElmer EnVision (Fluorescence Intensity/Absorbance Monochromator) or Tecan Infinite 200 PRO series plate reader was used to detect change in fluorescent intensity.
ATX activity was determined by measurement of released choline in reactions containing ATX (10 nM), choline oxidase (0.1 U/ml), HRP (100 U/ml), amplex red (50 μM) and LPC 18:1 (10 μM). Compounds of the invention were prepared as 10 point serial dilutions from 1 μM in duplicate and pre-incubated with ATX at 37° C. for 20 minutes prior to the addition of remaining reagents. The liberated choline was measured from changes in fluorescence intensity (λex 530 nm, λem 590 nm) of the product resurofin at 37° C. every 2 minutes over a 40-minute period. ATX activity was measured as a slope of the linear portion of the progress curve, typically between 14 to 24 minutes.
Slope data was exported to Graphpad prism (Graphpad software, San Diego, Calif.) where data was fitted to equation 1.
Y=Bottom+(Top−Bottom)/(1+10̂((Log IC50−X)*HillSlope)) Equation 1: […]
With `O=C(NC1CC2CCC(C1)N2C(=O)CCCc1c[nH]nn1)OCc1cc(Cl)cc(Cl)c1` (centres unmarked) [Example 47, 3,5-Dichlorobenzyl (8-(4-(1H-1,2,3-triazol-4-yl)butanoyl)-8-azabicyclo[3.2.1]octan-3-yl)carbamate], the half-maximal inhibitory concentration (IC50) came to 3160 nM.

Still in this experiment, the particulars now being: ATX 10 nM, LPC 18:1 10 μM, pre-incubated with ATX at 37° C. for 20 minutes; Table 1, exemplified compounds; read-out: IC50.
Take `O=C(CCCc1c[nH]nn1)NC1CCN(C(=O)OCc2cc(F)cc(Cl)c2)CC1` [Example 37, 3-Chloro-5-fluorobenzyl 4-(4-(1H-1,2,3-triazol-4-yl)butanamido)piperidine-1-carboxylate]: the 50% inhibitory concentration (IC50) stood at 55 nM.

Take `O=C(CCCc1c[nH]nn1)NC1CCN(C(=O)/C=C/c2cc(Cl)cc(Cl)c2)CC1` [Example 38, (E)-N-(1-(3-(3,5-Dichlorophenyl)acryloyl)piperidin-4-yl)-4-(1H-1,2,3-triazol-4-yl)butanamide]: the IC50 stood at 21 nM.

Turning to `O=C(CCCc1c[nH]nn1)NC1CCN(C(=O)/C=C/c2ccc(Cl)cc2Cl)CC1` [Example 39, (E)-N-(1-(3-(2,4-Dichlorophenyl)acryloyl)piperidin-4-yl)-4-(1H-1,2,3-triazol-4-yl)butanamide], the half-maximal inhibitory concentration (IC50) was 77 nM.

For the molecule `O=C(O)CCCCCCC(=O)NC1CCN(C(=O)OCc2cc(Cl)cc(Cl)c2)CC1` [Example 40, 8-((1-(((3,5-Dichlorobenzyl)oxy)carbonyl)piperidin-4-yl)amino)-8-oxooctanoic acid], the IC50 was 135 nM.

Turning to `O=C(CCCc1cnn[nH]1)NCC1CCN(C(=O)OCc2cc(Cl)cc(Cl)c2)CC1` [Example 41, 3,5-Dichlorobenzyl 4-((4-(1H-1,2,3-triazol-5-yl)butanamido)methyl)piperidine-1-carboxylate], the IC50 stood at 18 nM.

As for `O=C(CCCc1c[nH]nn1)NC1CCN(C(=O)CCc2cc(Cl)cc(Cl)c2)CC1` [Example 42, N-(1-(3-(3,5-Dichlorophenyl)propanoyl)piperidin-4-yl)-4-(1H-1,2,3-triazol-4-yl)butanamide], the half-maximal inhibitory concentration (IC50) was found to be 119 nM.

In the case of `O=C(CCCc1c[nH]nn1)NC1CCN(C(=O)CCc2ccc(Cl)cc2Cl)CC1` [Example 43, N-(1-(3-(2,4-Dichlorophenyl)propanoyl)piperidin-4-yl)-4-(1H-1,2,3-triazol-4-yl)butanamide], the half-inhibitory concentration (IC50) was determined as 113 nM.

Regarding `N#Cc1cc(Cl)cc(COC(=O)N2CCC(NC(=O)CCCc3c[nH]nn3)CC2)c1` [Example 44, 3-Chloro-5-cyanobenzyl 4-(4-(1H-1,2,3-triazol-4-yl)butanamido)piperidine-1-carboxylate], the IC50 turned out to be 8 nM.

Take `O=C(CCCc1c[nH]nn1)NC1CC2CCC(C1)N2C(=O)OCc1cc(Cl)cc(Cl)c1` (centres unmarked) [Example 45, 3,5-Dichlorobenzyl 3-(4-(1H-1,2,3-triazol-4-yl)butanamido)-8-azabicyclo[3.2.1]octane-8-carboxylate]: the IC50 turned out to be 555 nM.

Consider `O=C(CCCc1c[nH]nn1)NC1CCCN(C(=O)OCc2cc(Cl)cc(Cl)c2)CC1` (centres unmarked) [Example 46, 3,5-Dichlorobenzyl 4-(4-(1H-1,2,3-triazol-4-yl)butanamido)azepane-1-carboxylate], for which the concentration for half-maximal inhibition (IC50) was 731 nM.

`O=C(NC1CCCN(C(=O)CCCc2c[nH]nn2)CC1)OCc1cc(Cl)cc(Cl)c1` (centres unmarked) [Example 48, 3,5-Dichlorobenzyl (1-(4-(1H-1,2,3-triazol-4-yl)butanoyl)azepan-4-yl)carbamate]: the 50% inhibitory concentration (IC50) stood at 791 nM.

As for `O=C(CCCc1c[nH]nn1)NC1CN(C(=O)OCc2cc(Cl)cc(Cl)c2)C1` [Example 50, 3,5-Dichlorobenzyl 3-(4-(1H-1,2,3-triazol-4-yl)butanamido)azetidine-1-carboxylate], the half-inhibitory concentration (IC50) was found to be 12 nM.

For `Cc1cc(C)cc(COC(=O)N2CCC(NC(=O)CCCc3c[nH]nn3)CC2)c1` [Example 51, 3,5-Dimethyl benzyl 4-(4-(1H-1,2,3-triazol-4-yl)butanamido)piperidine-1-carboxylate], the half-maximal inhibitory concentration (IC50) came out at 6 nM.

With `O=C(NC1CCN(C(=O)CCCCc2c[nH]nn2)CC1)OCc1cc(Cl)cc(Cl)c1` [Example 52, 3,5-Dichlorobenzyl (1-(5-(1H-1,2,3-triazol-4-yl)pentanoyl)piperidin-4-yl)carbamate], the IC50 was determined as 42 nM.

As to `O=C(CCCc1c[nH]nn1)NC1CCN(C(=O)OCc2ccc(C(F)(F)F)cc2)CC1` [Example 53, 4-(Trifluoromethyl)benzyl 4-(4-(1H-1,2,3-triazol-4-yl)butanamido)piperidine-1-carboxylate], the IC50 is 40 nM.

For the molecule `O=C(CCCc1c[nH]nn1)NC1CCN(C(=O)CCc2ccc(C(F)(F)F)cc2)CC1` [Example 54, 4-(1H-1,2,3-Triazol-4-yl)-N-(1-(3-(4-(trifluoromethyl)phenyl)propanoyl)piperidin-4-yl)butanamide], the IC50 worked out at 87 nM.

As for `O=C(CCCc1c[nH]nn1)NC1CCN(C(=O)COc2cc(Cl)cc(Cl)c2)CC1` [Example 55, N-(1-(2-(3,5-Dichlorophenoxy)acetyl)piperidin-4-yl)-4-(1H-1,2,3-triazol-4-yl)butanamide], the IC50 was determined as 154 nM.

As to `Cc1cc(Cl)cc(COC(=O)N2CCC(NC(=O)CCCc3c[nH]nn3)CC2)c1` [Example 56, 3-Chloro-5-methylbenzyl 4-(4-(1H-1,2,3-triazol-4-yl)butanamido)piperidine-1-carboxylate], the IC50 was found to be 10 nM.

On to `O=C(CCc1cnn[nH]1)NCC1CCN(C(=O)OCc2cc(Cl)cc(Cl)c2)CC1` [Example 57, 3,5-Dichlorobenzyl 4-((3-(1H-1,2,3-triazol-5-yl)propanamido)methyl)piperidine-1-carboxylate], for which the 50% inhibitory concentration (IC50) worked out at 17 nM.

`O=C(CCCc1c[nH]nn1)NC1CCN(C(=O)OCc2ccc(Cl)cc2Cl)CC1` [Example 58, 2,4-Dichlorobenzyl 4-(4-(1H-1,2,3-triazol-4-yl)butanamido)piperidine-1-carboxylate]: the IC50 is 206 nM.

With `O=C(CCCc1c[nH]nn1)NC1CCN(C(=O)OCCc2cc(Cl)cc(Cl)c2)CC1` [Example 59, 3,5-Dichlorophenethyl 4-(4-(1H-1,2,3-triazol-4-yl)butanamido)piperidine-1-carboxylate], the IC50 came to 24 nM.

For `O=C(CCC1CCN(C(=O)OCc2cc(Cl)cc(Cl)c2)CC1)NCc1c[nH]nn1` [Example 60, 3,5-Dichlorobenzyl 4-(3-(((1H-1,2,3-triazol-4-yl)methyl)amino)-3-oxopropyl)piperidine-1-carboxylate], the IC50 came to 7 nM.

In the case of `O=C(CC1CCN(C(=O)OCc2cc(Cl)cc(Cl)c2)CC1)NCCc1c[nH]nn1` [Example 61, 3,5-Dichlorobenzyl 4-(2-((2-(1H-1,2,3-triazol-4-yl)ethyl)amino)-2-oxoethyl)piperidine-1-carboxylate], the 50% inhibitory concentration (IC50) stood at 15 nM.

As for `Cc1cc(COC(=O)N2CCC(NC(=O)CCCc3c[nH]nn3)CC2)cc(C(F)(F)F)c1` [Example 62, 3-Methyl-5-(trifluoromethyl)benzyl 4-(4-(1H-1,2,3-triazol-4-yl)butanamido)piperidine-1-carboxylate], the IC50 turned out to be 5 nM.

Consider `O=C(CCCc1c[nH]nn1)NC1CCN(C(=O)OCc2cc(Br)cc(C(F)(F)F)c2)CC1` [Example 63, 3-Bromo-5-(trifluoromethyl)benzyl 4-(4-(1H-1,2,3-triazol-4-yl)butanamido)piperidine-1-carboxylate], for which the IC50 is 3 nM.

Take `N#Cc1cc(Cl)cc(COC(=O)N2CCC(NC(=O)CCCCc3c[nH]nn3)CC2)c1` [Example 64, 3-Chloro-5-cyanobenzyl 4-(5-(1H-1,2,3-triazol-4-yl)pentanamido)piperidine-1-carboxylate]: the IC50 amounted to 8 nM.

On to `N#Cc1cc(Cl)cc(COC(=O)N2CCC(NC(=O)CCc3c[nH]nn3)CC2)c1` [Example 65, 3-Chloro-5-cyanobenzyl 4-(3-(1H-1,2,3-triazol-4-yl)propanamido)piperidine-1-carboxylate], for which the concentration for half-maximal inhibition (IC50) turned out to be 26 nM.

As for `N#Cc1cc(COC(=O)N2CCC(NC(=O)CCCc3c[nH]nn3)CC2)cc(C(F)(F)F)c1` [Example 66, 3-Cyano-5-(trifluoromethyl)benzyl 4-(4-(1H-1,2,3-triazol-4-yl)butanamido)piperidine-1-carboxylate], the concentration for half-maximal inhibition (IC50) is 4 nM.

With `O=C(CCCCCc1c[nH]nn1)NC1CCN(C(=O)OCc2cc(Cl)cc(Cl)c2)CC1` [Example 67, 3,5-Dichlorobenzyl 4-(6-(1H-1,2,3-triazol-4-yl)hexanamido)piperidine-1-carboxylate], the concentration for half-maximal inhibition (IC50) turned out to be 4 nM.

For `O=C(OCc1cc(Cl)cc(Cl)c1)N1CCC(CCCCCc2c[nH]nn2)CC1` [Example 68, 3,5-Dichlorobenzyl 4-(5-(1H-1,2,3-triazol-4-yl)pentyl)piperidine-1-carboxylate], the IC50 is 318 nM.

Turning to `N#Cc1cc(Cl)cc(COC(=O)N2CCC(CCCCCc3c[nH]nn3)CC2)c1` [Example 69, 3-Chloro-5-cyanobenzyl 4-(5-(1H-1,2,3-triazol-4-yl)pentyl)piperidine-1-carboxylate], the IC50 stood at 69 nM.
